Tested on: P. aeruginosa PAO1
Experiment: Half maximal inhibitory concentration (IC50) of planktonic growth, CFU/mL enumeration
Assay type: cell-based, Pseudomonas aeruginosa
Settings: for IC50: Pseudomonas aeruginosa, PAO1, planktonic growth, 24 h, 35° C, defined media, 2% DMSO, average ± SD of three experiments
Description: Chemicals were purchased from Fisher Scientific (Waltham, MA) unless otherwise stated. P. aeruginosa PAO1 was obtained from the University of Washington Genome center.^80 The PAO1 strain expressing enhanced yellow fluorescent protein (EYFP) was prepared as described in Soldano, A.; Yao, H.; Chandler, J. R.; Rivera, M. (2020) Inhibiting Iron Mobilization from Bacterioferritin in Pseudomonas aeruginosa Impairs Biofilm Formation Irrespective of Environmental Iron Availability. ACS Infect. Dis. 6, 447-458. 10.1021/acsinfecdis.9b00398.^26 Clinical isolates of P. aeruginosa were purchased from JMI Laboratories (North Liberty, IA, USA). […] Starter cultures of P. aeruginosa PAO1 in 5 mL LB media were grown for 13 hours in 50 mL conical tubes at 37° C. and 220 rpm. For biofilm experiments, a EYFP-expressing P. aeruginosa strain was routinely grown in Pseudomonas Isolation (PI) media (20 g L^−1 peptone, 0.3 g L^−1 MgCl2·6H O, 10 g L^−1 K2SO4, 25 mg L^−1 irgasan, and 20 mL L^−1 glycerol, pH 7.0). Starter cultures were grown from a single colony at 37° C. and shaking at 220 rpm for 14 hours in 5 mL PI media supplemented with 10 μM Fe. Pellicle biofilms were cultured for 48 hours at 30° C. in PI media supplemented with 20 μM Fe. Surface-attached biofilms were cultured in AB minimal media^81 supplemented with trace metals [0.15 μM (NH4)2MoO4, 3 μM CuSO4, 2 μM Co(NO3)2, 9.4 μM Na2B4O7, and 7.6 μM ZnSO4], 3 mM glucose and 15 μM Fe. Iron supplementation was carried out by addition of a small volume of filter-sterilized 10 mM (NH4)2Fe(SO4)2 (pH˜2.0) solution. […]; IC50 values (Table 1 below) were determined as reported previously^25 with small modifications. In brief: precultures of P. aeruginosa PAO1 (5 mL) were grown in LB media for 13 hours at 37° C. and 220 rpm in 50 mL conical tubes (VWR International, PA). The cells were centrifuged for 5 min at 4,000 rpm and 4° C., washed two times and then diluted in buffer (100 mM KH2PO4 and 15 mM (NH4)2SO4 to an optical density at 600 nm (OD600) of 0.1. A small volume of compound stock solution (10 mM) was transferred to a microcentrifuge tube, initially diluted with DMSO to 20 μL, and then diluted to 1 mL with preculture cell suspension in defined media with OD600=0.0001, so the final DMSO concentration is 2%. The resultant cell suspension (200 μL) was transferred to a clear-bottom polystyrene 96-well plate (VWR International, PA) covered with a lid and incubated at 35° C. and 205 cpm for 24 h in a Synergy H1 microplate reader (Biotek Instruments Inc., Winooski, VT). The cell cultures were serially diluted and then plated on PI Agar (PIA; BD Biosciences, San Jose, CA) plates for enumeration of viable cells (CFU/mL). The % growth was calculated from the ratio CFU/mL(treated)/CFU/mL(untreated control). To calculate the IC50 values, the % growth was plotted as a function of compound concentration, expressed as log[compound] (μM), and fitted to the 4-parameter logistic model describing the sigmoid-shaped response pattern (equation 1),^83 where b is the slope factor, max is the upper asymptote (plateau), and min is the lower asymptote. Values are the average and standard deviation from three independent experiments.

Row | SMILES | IC50 | fold lower IC50 relative to JAG-5-7 (relative to JAG-5-7) | fold decrease of IC50 relative to compound 16 (relative to compound 16)
1 | O=C1NC(=O)c2c(NCc3cc(Cl)ccc3O)cccc21 [KM-5-25] | 69 ± 7 µM | ~2 fold | –
2 | O=C1NC(=O)c2c(NCCCc3cc(O)cc(Cl)c3)cccc21 [KM-5-66] | 42 ± 6 µM | – | ~3 fold
